From ChEMBL document CHEMBL4808256, “Benzothiophene derivatives as selective estrogen receptor covalent antagonists: Design, synthesis and anti-ERα activities” (Bioorg Med Chem, 2021)
Blank lines part the entries; values can stand above or below the compound they belong to. Activity calls are given as the source filed them. The rule behind the calls is not given here.

Legend:
MCF7 [1] = assay: Antiproliferative activity against ER-positive human MCF7 cells assessed as inhibition of cell growth incubated for 48 hrs by CCK8 assay; type: functional, cell-based; details: MCF7, 48 h
Ishikawa [2] = assay: Antiproliferative activity against ER-positive human Ishikawa cells assessed as inhibition of cell growth incubated for 48 hrs by CCK8 assay; type: functional, cell-based
[3] = target: T1, Estrogen receptor (Homo sapiens) (UniProt P03372); assay: Covalent antagonist activity at ERalpha in human MCF7 cells assessed as reduction in E2-stimulated TFF1 gene expression at 1.25 to 10 uM incubated for 24 hrs by RT-PCR analysis; type: cell-based; details: filed as antagonist, dose 1.25-10 µM
T1 sequence (whole entry): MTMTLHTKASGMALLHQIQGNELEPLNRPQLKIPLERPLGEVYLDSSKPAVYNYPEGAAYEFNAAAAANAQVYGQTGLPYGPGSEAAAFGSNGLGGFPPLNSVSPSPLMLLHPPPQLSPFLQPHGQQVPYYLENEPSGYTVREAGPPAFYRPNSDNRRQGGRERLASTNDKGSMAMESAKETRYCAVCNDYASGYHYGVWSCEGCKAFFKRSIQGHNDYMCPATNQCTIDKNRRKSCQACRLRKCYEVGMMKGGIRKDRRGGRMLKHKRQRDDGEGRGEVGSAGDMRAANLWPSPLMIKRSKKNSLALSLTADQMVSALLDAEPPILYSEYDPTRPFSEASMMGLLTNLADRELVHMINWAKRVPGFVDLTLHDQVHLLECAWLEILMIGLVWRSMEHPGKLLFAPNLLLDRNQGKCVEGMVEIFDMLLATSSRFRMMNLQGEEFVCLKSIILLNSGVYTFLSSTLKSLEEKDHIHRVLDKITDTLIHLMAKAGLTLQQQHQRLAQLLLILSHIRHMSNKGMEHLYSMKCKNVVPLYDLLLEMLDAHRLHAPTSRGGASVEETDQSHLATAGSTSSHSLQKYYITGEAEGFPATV

MCF7 [4] = assay: Induction of cell cycle arrest in human MCF7 cells assessed as accumulation at S phase at 10 uM by propidium iodide staining based flow cytometric analysis (reference value: 63.32%); type: functional
[5] = target: T1, Estrogen receptor (Homo sapiens); assay: Covalent antagonist activity at ERalpha in human MCF7 cells assessed as reduction in E2-stimulated GREB1 gene expression at 1.25 to 10 uM incubated for 24 hrs by RT-PCR analysis; type: cell-based; details: filed as antagonist, dose 1.25-10 µM
MCF7 [6] = assay: Induction of cell cycle arrest in human MCF7 cells assessed as accumulation at S phase at 5 uM by propidium iodide staining based flow cytometric analysis (reference value: 63.32%); type: functional
Ishikawa [7] = assay: Induction of cell proliferation in human ishikawa cells at 156 to 5000 nM measured after 2 days; type: cell-based; details: 48 h, 5 µM, dose 156-5000 nM, time 2 day
[8] = target: T1, Estrogen receptor (Homo sapiens); assay: Antagonist activity at ERalpha receptor in human ishikawa cells assessed as suppression of E2-stimulated PGR expression at 1.25 to 10 uM by RT-PCR analysis; type: cell-based; details: filed as antagonist, dose 1.25-10 µM
MCF7 [9] = assay: Induction of cell cycle arrest in human MCF7 cells assessed as accumulation at S phase at 1 uM by propidium iodide staining based flow cytometric analysis (reference value: 63.32%); type: functional
MCF7 [10] = assay: Induction of cell cycle arrest in human MCF7 cells assessed as accumulation at G0/G1 phase at 5 uM by propidium iodide staining based flow cytometric analysis (reference value: 24.44%); type: functional
MCF7 [11] = assay: Induction of cell cycle arrest in human MCF7 cells assessed as accumulation at G0/G1 phase at 1 uM by propidium iodide staining based flow cytometric analysis (reference value: 24.44%); type: functional
MCF7 [12] = assay: Induction of cell cycle arrest in human MCF7 cells assessed as accumulation at G0/G1 phase at 10 uM by propidium iodide staining based flow cytometric analysis (reference value: 24.44%); type: functional
MCF7 [13] = assay: Induction of apoptosis in human MCF7 cells assessed as viable cells at 1 uM by AnnexinV-FITC/propidium iodide staining based flow cytometry (reference value: 96.1%); type: functional; details: read-out: Activity
MCF7 [14] = assay: Induction of apoptosis in human MCF7 cells assessed as viable cells at 5 uM by AnnexinV-FITC/propidium iodide staining based flow cytometry (reference value: 96.1%); type: functional; details: read-out: Activity
MCF7 [15] = assay: Induction of apoptosis in human MCF7 cells assessed as viable cells at 10 uM by AnnexinV-FITC/propidium iodide staining based flow cytometry (reference value: 96.1%); type: functional; details: read-out: Activity
MDA-MB-231 = assay: Antiproliferative activity against ER-negative human MDA-MB-231 cells assessed as inhibition of cell growth incubated for 48 hrs by CCK8 assay; type: functional, cell-based; details: MDA-MB-231, 48 h
MCF7 [16] = assay: Potency index, ratio of raloxifene IC50 to test compound IC50 for antiproliferative activity against ER-positive human MCF7 cells; type: functional
MCF7 [17] = assay: Downregulation of ERalpha protein expression in human MCF7 cells at 5 uM incubated for 24 hrs by DAPI staining based immunofluorescence microscopy; type: functional, cell-based
MCF7 [18] = assay: Induction of cell cycle arrest in human MCF7 cells assessed as accumulation at G2/M phase at 1 uM by propidium iodide staining based flow cytometric analysis (reference value: 12.24%); type: functional
MCF7 [19] = assay: Induction of cell cycle arrest in human MCF7 cells assessed as accumulation at G2/M phase at 5 uM by propidium iodide staining based flow cytometric analysis (reference value: 12.24%); type: functional
MCF7 [20] = assay: Induction of cell cycle arrest in human MCF7 cells assessed as accumulation at G2/M phase at 10 uM by propidium iodide staining based flow cytometric analysis (reference value: 12.24%); type: functional
MCF7 [21] = assay: Induction of apoptosis in human MCF7 cells assessed as early apoptotic cells at 1 uM by AnnexinV-FITC/propidium iodide staining based flow cytometry (reference value: 0.8%); type: functional
MCF7 [22] = assay: Induction of apoptosis in human MCF7 cells assessed as early apoptotic cells at 5 uM by AnnexinV-FITC/propidium iodide staining based flow cytometry (reference value: 0.8%); type: functional
MCF7 [23] = assay: Induction of apoptosis in human MCF7 cells assessed as early apoptotic cells at 10 uM by AnnexinV-FITC/propidium iodide staining based flow cytometry (reference value: 0.8%); type: functional
MCF7 [24] = assay: Induction of apoptosis in human MCF7 cells assessed as late apoptotic cells at 1 uM by AnnexinV-FITC/propidium iodide staining based flow cytometry (reference value: 0.7%); type: functional
MCF7 [25] = assay: Induction of apoptosis in human MCF7 cells assessed as late apoptotic cells at 5 uM by AnnexinV-FITC/propidium iodide staining based flow cytometry (reference value: 0.7%); type: functional
MCF7 [26] = assay: Induction of apoptosis in human MCF7 cells assessed as late apoptotic cells at 10 uM by AnnexinV-FITC/propidium iodide staining based flow cytometry (reference value: 0.7%); type: functional
MCF7 [27] = assay: Induction of apoptosis in human MCF7 cells assessed as necrotic cells at 1 uM by AnnexinV-FITC/propidium iodide staining based flow cytometry (reference value: 0.4%); type: functional
MCF7 [28] = assay: Induction of apoptosis in human MCF7 cells assessed as necrotic cells at 5 uM by AnnexinV-FITC/propidium iodide staining based flow cytometry (reference value: 0.4%); type: functional
MCF7 [29] = assay: Induction of apoptosis in human MCF7 cells assessed as necrotic cells at 10 uM by AnnexinV-FITC/propidium iodide staining based flow cytometry (reference value: 0.4%); type: functional

IC50 (MCF7 [1]): > 50 µM
Compound: C/C=C/C(=O)NCCOc1ccc(C(=O)c2c(-c3ccc(O)cc3)sc3cc(O)ccc23)cc1
IC50 (Ishikawa [2]): > 100 µM

IC50 (MCF7 [1]): 21.9 µM
Compound: O=C(c1ccc(OCCN2CCCCC2)cc1)c1c(-c2ccc(O)cc2)sc2cc(O)ccc12 [RALOXIFENE]
IC50 (Ishikawa [2]): 28.4 µM

IC50 (MCF7 [1]): 1.31 µM | inhibition [3]: Active | inhibition [5]: Active | inhibition [8]: Active | IC50 (MDA-MB-231): > 50 µM
Compound: O=C(c1ccc(OC2CN(C/C=C/C(=O)N3CCCCC3)C2)cc1)c1c(-c2ccc(O)cc2)sc2cc(O)ccc12
IC50 (Ishikawa [2]): 10.3 µM | Activity (MCF7 [4]): 49.43% | Activity (MCF7 [6]): 54.23% | Activity (Ishikawa [7]): Non-Toxic | Activity (MCF7 [9]): 57.31% | Activity (MCF7 [10]): 32.84% | Activity (MCF7 [11]): 28.53% | Activity (MCF7 [12]): 38.85% | viability at 1 µM (MCF7 [13]): 87.1% | viability at 5 µM (MCF7 [14]): 77.4% | viability at 10 µM (MCF7 [15]): 66.3% | Ratio IC50 (MCF7 [16]): 20 | inhibition (MCF7 [17]): Active | Activity (MCF7 [18]): 14.1% | Activity (MCF7 [19]): 12.93% | Activity (MCF7 [20]): 11.72% | Activity (MCF7 [21]): 8.3% | Activity (MCF7 [22]): 11.5% | Activity (MCF7 [23]): 16.6% | Activity (MCF7 [24]): 3.4% | Activity (MCF7 [25]): 9.7% | Activity (MCF7 [26]): 15.8% | Activity (MCF7 [27]): 1.2% | Activity (MCF7 [28]): 1.4% | Activity (MCF7 [29]): 1.3%

IC50 (MCF7 [1]): 23.7 µM
Compound: C/C=C/C(=O)N1CC(Oc2ccc(C(=O)c3c(-c4ccc(O)cc4)sc4cc(O)ccc34)cc2)C1
IC50 (Ishikawa [2]): 22.2 µM

Compound: CC/C(=C(\c1ccc(O)cc1)c1ccc(OCCN(C)C)cc1)c1ccccc1 [AFIMOXIFENE]
Activity (Ishikawa [7]): Toxic

IC50 (MCF7 [1]): 24.2 µM
Compound: O=C(c1ccc(OCCNC/C=C/C(=O)N2CCC2)cc1)c1c(-c2ccc(O)cc2)sc2cc(O)ccc12
IC50 (Ishikawa [2]): 29.6 µM

IC50 (MCF7 [1]): 5.72 µM
Compound: O=C(c1ccc(OC2CN(C/C=C/C(=O)N3CCOCC3)C2)cc1)c1c(-c2ccc(O)cc2)sc2cc(O)ccc12
IC50 (Ishikawa [2]): 18.4 µM | Ratio IC50 (MCF7 [16]): 4

IC50 (MCF7 [1]): > 50 µM
Compound: C=C(C)C(=O)N1CCN(c2ccc(C(=O)c3c(-c4ccc(O)cc4)sc4cc(O)ccc34)cc2)CC1
IC50 (Ishikawa [2]): > 100 µM

IC50 (MCF7 [1]): 23.1 µM
Compound: C=C(C)C(=O)N1CC(Oc2ccc(C(=O)c3c(-c4ccc(O)cc4)sc4cc(O)ccc34)cc2)C1
IC50 (Ishikawa [2]): 22.6 µM

IC50 (MCF7 [1]): 29.3 µM
Compound: CN(C)C(=O)/C=C/CN1CC(Oc2ccc(C(=O)c3c(-c4ccc(O)cc4)sc4cc(O)ccc34)cc2)C1
IC50 (Ishikawa [2]): 29.6 µM

IC50 (MCF7 [1]): 11.5 µM
Compound: O=C(c1ccc(OCCNC/C=C/C(=O)N2CCCCC2)cc1)c1c(-c2ccc(O)cc2)sc2cc(O)ccc12
IC50 (Ishikawa [2]): 6.34 µM

Compound: CC/C(=C(\c1ccccc1)c1ccc(OCCN(C)C)cc1)c1ccccc1 [TAMOXIFEN]
IC50 (Ishikawa [2]): 14.6 µM

IC50 (MCF7 [1]): > 50 µM
Compound: C=CC(=O)N1CCN(c2ccc(C(=O)c3c(-c4ccc(O)cc4)sc4cc(O)ccc34)cc2)CC1
IC50 (Ishikawa [2]): > 100 µM

IC50 (MCF7 [1]): 13.1 µM | IC50 (MDA-MB-231): > 50 µM
Compound: CNC(=O)/C=C/CNCCOc1ccc(C(=O)c2c(-c3ccc(O)cc3)sc3cc(O)ccc23)cc1
IC50 (Ishikawa [2]): 50.9 µM

IC50 (MCF7 [1]): 24.2 µM
Compound: O=C(c1ccc(OCCNC/C=C/C(=O)N2CCCC2)cc1)c1c(-c2ccc(O)cc2)sc2cc(O)ccc12
IC50 (Ishikawa [2]): 46.1 µM

IC50 (MCF7 [1]): > 50 µM | IC50 (MDA-MB-231): > 50 µM
Compound: O=C(c1ccc(OC2CN(CCCC(=O)N3CCCCC3)C2)cc1)c1c(-c2ccc(O)cc2)sc2cc(O)ccc12
IC50 (Ishikawa [2]): > 50 µM

IC50 (MCF7 [1]): 8.41 µM | IC50 (MDA-MB-231): > 50 µM
Compound: O=C(c1ccc(OCCNC/C=C/C(=O)N2CCOCC2)cc1)c1c(-c2ccc(O)cc2)sc2cc(O)ccc12
IC50 (Ishikawa [2]): 24.9 µM

IC50 (MCF7 [1]): 28.7 µM
Compound: C=C(C)C(=O)NCCOc1ccc(C(=O)c2c(-c3ccc(O)cc3)sc3cc(O)ccc23)cc1
IC50 (Ishikawa [2]): 29.2 µM

IC50 (MCF7 [1]): 42.8 µM
Compound: COCCNC(=O)/C=C/CNCCOc1ccc(C(=O)c2c(-c3ccc(O)cc3)sc3cc(O)ccc23)cc1
IC50 (Ishikawa [2]): 55.3 µM

IC50 (MCF7 [1]): 37.1 µM
Compound: C=CC(=O)NCCOc1ccc(C(=O)c2c(-c3ccc(O)cc3)sc3cc(O)ccc23)cc1
IC50 (Ishikawa [2]): > 100 µM

IC50 (MCF7 [1]): 11.3 µM | IC50 (MDA-MB-231): > 50 µM
Compound: CNC(=O)/C=C/CN1CC(Oc2ccc(C(=O)c3c(-c4ccc(O)cc4)sc4cc(O)ccc34)cc2)C1
IC50 (Ishikawa [2]): 45 µM

IC50 (MCF7 [1]): > 50 µM
Compound: CN(C)C(=O)/C=C/CNCCOc1ccc(C(=O)c2c(-c3ccc(O)cc3)sc3cc(O)ccc23)cc1
IC50 (Ishikawa [2]): 48.4 µM

IC50 (MCF7 [1]): 23.3 µM
Compound: O=C(c1ccc(OC2CN(C/C=C/C(=O)N3CCC3)C2)cc1)c1c(-c2ccc(O)cc2)sc2cc(O)ccc12
IC50 (Ishikawa [2]): 25.8 µM

IC50 (MCF7 [1]): 31.3 µM
Compound: C=CC(=O)N1CC(Oc2ccc(C(=O)c3c(-c4ccc(O)cc4)sc4cc(O)ccc34)cc2)C1
IC50 (Ishikawa [2]): 16.6 µM
